# Calls of active or inactive are those of the source. The calls are words filed in the database; no cut-off is given here.
# Legend:
# [1] = Selectivity index, ratio of IC50 for cytotoxicity against human WI-38 cells to IC50 for cytotoxicity against human A549 cells; format: toxicity, cell-based; settings: WI-38 cells versus A549 cells, read-out: Ratio IC50
# [2] = Selectivity index, ratio of IC50 for cytotoxicity against human WI-38 cells to IC50 for cytotoxicity against human NCI-H460 cells; format: toxicity, cell-based; settings: WI-38 cells versus NCI-H460 cells, read-out: Ratio IC50
# [3] = Cytotoxicity against human WI-38 cells incubated for 72 hrs by MTT assay; format: toxicity, cell-based
# WI-38 = assay: Cytotoxicity against human WI-38 cells by measuring effective concentration incubated for 72 hrs by MTT assay; format: toxicity, cell-based; settings: wi-38, 72 h
# A549 = assay: cells; settings: Homo sapiens, A549, 72 h
# Description: Cytotoxicity against human A549 cells incubated for 72 hrs by MTT assay
# NCI-H460 = assay: Cytotoxicity against human NCI-H460 cells incubated for 72 hrs by MTT assay; settings: NCI-H460, 72 h
# Calf thymus DNA = assay: Binding affinity to calf thymus DNA assessed as disruption of DNA by measuring increase in TB3+ fluorescence at 5 uM incubated for 24 hrs followed by biosensor TbCl3 addition by fluorescence spectrophotometric analysis; format: tissue-based; settings: Bos taurus
IC50 (A549) [nM],SMILES,selectivity ratio [1],selectivity ratio [2],IC50 at 72 h [3] [nM],EC100 (WI-38) [µM],IC50 (NCI-H460) [nM],Activity (Calf thymus DNA)
205,O=C(c1ccc([N+](=O)[O-])cc1)[C@H]1[C@H](c2cn(-c3ccccc3)nc2-c2ccccc2)[C@@H]2CC3CCCCC3N2[C@]12C(=O)Nc1ccccc12 (stereo not given in full),3.47,0.78,712,0.41,909,–
130,O=C(c1ccccc1[N+](=O)[O-])[C@H]1[C@H](c2cn(-c3ccccc3)nc2-c2ccccc2)[C@@H]2CC3CCCCC3N2[C@]12C(=O)Nc1cc(Cl)ccc12 (stereo not given in full),3.35,0.48,435,0.142,911,–
344,CN1C[C@@H](c2cn(-c3ccccc3)nc2-c2ccccc2)[C@H](C(=O)c2ccccc2)[C@@]12C(=O)Nc1ccccc12,3.79,1.71,1300,0.59,761,–

# Continued, molecule first:
SMILES,IC50 (A549) [nM],selectivity ratio [1],selectivity ratio [2],IC50 at 72 h [3] [nM],EC100 (WI-38) [µM],IC50 (NCI-H460) [nM],Activity (Calf thymus DNA)
O=C(c1ccccc1)[C@H]1[C@H](c2cn(-c3ccccc3)nc2-c2ccccc2)[C@@H]2CC3CCCCC3N2[C@]12C(=O)Nc1ccc(Cl)cc12 (stereo not given in full),231,2.02,0.88,467,0.28,529,–
COc1ccc2c(c1)[C@@]1(C(=O)N2)[C@@H](C(=O)c2ccc([N+](=O)[O-])cc2)[C@H](c2cn(-c3ccccc3)nc2-c2ccccc2)[C@@H]2CC3CCCCC3N21 (stereo not given in full),212,3.65,0.86,773,0.366,895,–
COc1cccc2c1C(=O)c1c(O)c3c(c(O)c1C2=O)C[C@@](O)(C(=O)CO)C[C@@H]3O[C@H]1C[C@H](N)[C@H](O)[C@H](C)O1 [DOXORUBICIN],–,–,–,129,0.033,–,Active
O=C(c1ccc(Br)cc1)[C@H]1[C@H](c2cn(-c3ccccc3)nc2-c2ccccc2)[C@@H]2CC3CCCCC3N2[C@]12C(=O)Nc1cc(Cl)ccc12 (stereo not given in full),205,5.05,0.73,1040,0.594,1420,–
O=C(c1ccccc1)[C@H]1[C@H](c2cn(-c3ccccc3)nc2-c2ccccc2)[C@@H]2CC3CCCCC3N2[C@]12C(=O)Nc1cc(Cl)ccc12 (stereo not given in full),192,2.65,0.53,509,0.267,964,–
